# Source: US20230167073A1 (Teijin Pharma Limited, priority 2020, published 2023)
# Molecular target: T1, Human TRPC6 (Homo sapiens, UniProt Q9Y210)
# T1 construct: expressed in transfected cells
# T1 sequence (Q9Y210 1-931): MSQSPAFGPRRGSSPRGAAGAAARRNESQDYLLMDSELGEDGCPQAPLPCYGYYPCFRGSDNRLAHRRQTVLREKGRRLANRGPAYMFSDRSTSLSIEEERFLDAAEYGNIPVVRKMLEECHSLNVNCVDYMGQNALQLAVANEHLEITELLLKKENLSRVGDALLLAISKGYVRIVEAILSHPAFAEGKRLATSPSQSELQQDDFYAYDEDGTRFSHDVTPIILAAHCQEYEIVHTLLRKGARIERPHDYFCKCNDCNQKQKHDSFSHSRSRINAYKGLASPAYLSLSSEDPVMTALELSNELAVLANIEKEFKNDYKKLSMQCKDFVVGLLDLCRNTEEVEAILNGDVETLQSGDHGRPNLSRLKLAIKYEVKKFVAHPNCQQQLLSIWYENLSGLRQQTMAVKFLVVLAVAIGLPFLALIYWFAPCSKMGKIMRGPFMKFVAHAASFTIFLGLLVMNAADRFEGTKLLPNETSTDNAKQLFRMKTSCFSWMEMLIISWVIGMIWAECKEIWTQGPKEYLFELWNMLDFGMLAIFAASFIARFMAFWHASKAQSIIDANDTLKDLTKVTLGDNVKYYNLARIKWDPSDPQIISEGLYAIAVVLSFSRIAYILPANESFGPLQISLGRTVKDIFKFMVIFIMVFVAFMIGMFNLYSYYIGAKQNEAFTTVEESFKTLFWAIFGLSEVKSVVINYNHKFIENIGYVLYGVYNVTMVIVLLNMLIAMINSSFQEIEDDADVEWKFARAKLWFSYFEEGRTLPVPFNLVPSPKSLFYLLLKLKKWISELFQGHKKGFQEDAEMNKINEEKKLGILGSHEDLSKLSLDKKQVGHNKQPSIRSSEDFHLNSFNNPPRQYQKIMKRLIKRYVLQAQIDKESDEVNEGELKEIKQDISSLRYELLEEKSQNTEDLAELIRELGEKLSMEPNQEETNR
# Test: Evaluation of TRPC6 channel inhibitory activity (2), HEK293 cells with stably introduced human TRPC6, OAG stimulation, FLIPR tetra (Compound Nos. 1293 to 1405)
# Assay type: cell-based
# Conditions: HEK293 cells with stably introduced human TRPC6, OAG 50 μM/0.5% DMSO, read-out: Inhibitory activity (pIC50 class) (converted)
# In short: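 Calcium-dye-loaded HEK293 cells stably expressing human TRPC6 were pretreated with compound for 25 min, then stimulated with 50 μM OAG (0.5% DMSO) in Ca ringer buffer pH 7.2 with 2 mM CaCl2. Background-subtracted FLIPR calcium peaks were normalized to OAG (100%) and buffer (0%); pIC50 came from four-parameter logistic fit, binned as +/++/+++.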
row,Structure (SMILES),IC50 [nM]
1,"Cn1nc([C@H]2CCOC2)cc1Oc1cc(Cl)ccc1-c1ccc(CN)cn1 [compound 1345, [6-[4-chloro-2-[2-methyl-5-[(3R)-oxolan-3-yl]pyrazol-3-yl]oxyphenyl]pyridin-3-yl]methanamine]",10 to 1000
2,"Cn1nc(C2CC2)cc1Oc1cc(Cl)ccc1-c1ccc(CN)cn1 [compound 1346, [6-[4-chloro-2-(5-cyclopropyl-2-methylpyrazol-3-yl)oxyphenyl]pyridin-3-yl]methanamine]",< 10
3,"Cn1nc(C2CC2)cc1Oc1cc(Cl)ccc1-c1ncc([C@H](F)CN)cn1 [compound 1347, (2S)-2-[2-[4-chloro-2-(5-cyclopropyl-2-methylpyrazol-3-yl)oxyphenyl]pyrimidin-5-yl]-2-fluoroethanamine]",10 to 1000
4,"Cn1nc(C2CC2)cc1Oc1cc(Cl)ccc1-c1ncc([C@@H](F)CN)cn1 [compound 1348, (2R)-2-[2-[4-chloro-2-(5-cyclopropyl-2-methylpyrazol-3-yl)oxyphenyl]pyrimidin-5-yl]-2-fluoroethanamine]",< 10
5,"Cc1cc(Oc2cc(Cl)ccc2-c2ncc([C@H](O)CN)cn2)cc(N2CCOCC2)n1 [compound 1349, (1S)-2-amino-1-[2-[4-chloro-2-(2-methyl-6-morpholin-4-ylpyridin-4-yl)oxyphenyl]pyrimidin-5-yl]ethanol]",10 to 1000
6,"Cc1cc(Oc2cc(Cl)ccc2-c2ncc([C@@H](O)CN)cn2)cc(N2CCOCC2)n1 [compound 1350, (1R)-2-amino-1-[2-[4-chloro-2-(2-methyl-6-morpholin-4-ylpyridin-4-yl)oxyphenyl]pyrimidin-5-yl]ethanol]",< 10
7,"Cn1nc(-c2ccccn2)cc1Oc1cc(Cl)cnc1-c1ncc(CN)cn1 [compound 1351, [2-[5-chloro-3-(2-methyl-5-pyridin-2-ylpyrazol-3-yl)oxypyridin-2-yl]pyrimidin-5-yl]methanamine]",> 1000
8,"Cn1nc([C@H]2CCOC2)cc1Oc1cc(Cl)ccc1-c1ncc([C@@H](F)CN)cn1 [compound 1352, (2R)-2-[2-[4-chloro-2-[2-methyl-5-[(3R)-oxolan-3-yl]pyrazol-3-yl]oxyphenyl]pyrimidin-5-yl]-2-fluoroethanamine]",10 to 1000
9,"Cn1nc(-c2ccccn2)cc1Oc1cc(Cl)cnc1-c1ccc([C@@H](F)CN)cn1 [compound 1353, (2R)-2-[6-[5-chloro-3-(2-methyl-5-pyridin-2-ylpyrazol-3-yl)oxypyridin-2-yl]pyridin-3-yl]-2-fluoroethanamme]",10 to 1000
10,"Cn1nc(-c2ccccn2)cc1Oc1cc(Cl)cnc1-c1ccc([C@H](F)CN)cn1 [compound 1354, (2S)-2-[6-[5-chloro-3-(2-methyl-5-pyridin-2-ylpyrazol-3-yl)oxypyridin-2-yl]pyridin-3-yl]-2-fluoroethanamine]",< 10
11,"Cn1nc(C2CC2)cc1Oc1cc(Cl)ccc1-c1ncc(CN)cn1 [compound 1355, [2-[4-chloro-2-(5-cyclopropyl-2-methylpyrazol-3-yl)oxyphenyl]pyrimidin-5-yl]methanamine]",10 to 1000
12,"Cn1nc([C@@H]2CCOC2)cc1Oc1cc(Cl)ccc1-c1ncc(CN)cn1 [compound 1356, [2-[4-chloro-2-[2-methyl-5-[(3S)-oxolan-3-yl]pyrazol-3-yl]oxyphenyl]pyrimidin-5-yl]methanamine]",10 to 1000
13,"Cn1nc(-c2ccccn2)cc1Oc1cc(Cl)ccc1-c1ncc([C@@H](O)CN)cn1 [compound 1357, (1R)-2-amino-1-[2-[4-chloro-2-(2-methyl-5-pyridin-2-ylpyrazol-3-yl)oxyphenyl]pyrimidin-5-yl]ethanol]",< 10
14,"Cn1nc(-c2ccccn2)cc1Oc1cc(Cl)ccc1-c1ncc([C@H](O)CN)cn1 [compound 1358, (1S)-2-amino-1-[2-[4-chloro-2-(2-methyl-5-pyridin-2-ylpyrazol-3-yl)oxyphenyl]pyrimidin-5-yl]ethanol]",10 to 1000
15,"Cn1nc(C2CCOCC2)cc1Oc1cc(Cl)ccc1-c1ncc([C@H](F)CN)cn1 [compound 1359, (2S)-2-[2-[4-chloro-2-[2-methyl-5-(oxan-4-yl)pyrazol-3-yl]oxyphenyl]pyrimidin-5-yl]-2-fluoroethanamine]",10 to 1000
16,"Cn1nc(C2CCOCC2)cc1Oc1cc(Cl)ccc1-c1ncc([C@@H](F)CN)cn1 [compound 1360, (2R)-2-[2-[4-chloro-2-[2-methyl-5-(oxan-4-yl)pyrazol-3-yl]oxyphenyl]pyrimidin-5-yl]-2-fluoroethanamine]",< 10
17,"Cn1nc(C2CCOCC2)cc1Oc1cc(Cl)ccc1-c1ccc(CN)cn1 [compound 1361, [6-[4-chloro-2-[2-methyl-5-(oxan-4-yl)pyrazol-3-yl]oxyphenyl]pyridin-3-yl]methanamine]",< 10
18,"Cn1nc(C2CCOCC2)cc1Oc1cc(Cl)ccc1-c1ncc(CN)cn1 [compound 1362, [2-[4-chloro-2-[2-methyl-5-(oxan-4-yl)pyrazol-3-yl]oxyphenyl]pyrimidin-5-yl]methanamine]",10 to 1000
19,"Cn1nc(-c2ccccn2)cc1Oc1cc(Cl)ccc1-c1ccc([C@@H](N)CO)cn1 [compound 1363, (2R)-2-amino-2-[6-[4-chloro-2-(2-methyl-5-pyridin-2-ylpyrazol-3-yl)oxyphenyl]pyridin-3-yl]ethanol]",> 1000
20,"Cn1nc(-c2ccccc2)nc1Oc1cc(Cl)ccc1-c1ncc(CN)cn1 [compound 1364, [2-[4-chloro-2-[(2-methyl-5-phenyl 1,2,4-triazol-3-yl)oxy]phenyl]pyrimidin-5-yl]methanamine]",> 1000

# Other lines, results leading:
row,IC50 [nM],Structure (SMILES)
1,> 1000,"Cn1nc(-c2ccccc2)nc1Oc1cc(Cl)ccc1-c1ncc(CCN)cn1 [compound 1365, 2-[2-[4-chloro-2-[(2-methyl-5-phenyl-1,2,4-triazol-3-yl)oxy]phenyl]pyrimidin-5-yl]ethanamine]"
2,< 10,"Cn1nc(C2CC2)cc1Oc1cc(C#N)ccc1-c1ncc([C@@H](F)CN)cn1 [compound 1366, 4-[5-[(1R)-2-amino-1-fluoroethyl]pyrimidin-2-yl]-3-(5-cyclopropyl-2-methylpyrazol-3-yl)oxybenzonitrile]"
3,< 10,"Cn1nc(C2CC2)cc1Oc1cc(C#N)ccc1-c1ncc([C@H](F)CN)cn1 [compound 1367, 4-[5-[(1S)-2-amino-1-fluoroethyl]pyrimidin-2-yl]-3-(5-cyclopropyl-2-methylpyrazol-3-yl)oxybenzonitrile]"
4,< 10,"Cn1nc(C2CCOCC2)cc1Oc1cc(C#N)ccc1-c1ccc([C@@H](F)CN)cn1 [compound 1368, 4-[5-[(1R)-2-amino-1-fluoroethyl]pyridin-2-yl]-3-[2-methyl-5-(oxan-4-yl)pyrazol-3-yl]oxybenzonitrile]"
5,< 10,"Cn1nc(C2CCOCC2)cc1Oc1cc(C#N)ccc1-c1ccc([C@H](F)CN)cn1 [compound 1369, 4-[5-[(1S)-2-amino-1-fluoroethyl]pyridin-2-yl]-3-[2-methyl-5-(oxan-4-yl)pyrazol-3-yl]oxybenzonitrile]"
6,10 to 1000,"Cn1nc(C2CC2)cc1Oc1cc(Cl)cnc1-c1ccc([C@@H](F)CN)cn1 [compound 1370, (2R)-2-[6-[5-chloro-3-(5-cyclopropyl-2-methylpyrazol-3-yl)oxypyridin-2-yl]pyridin-3-yl]-2-fluoroethanamine]"
7,< 10,"Cn1nc(C2CC2)cc1Oc1cc(Cl)cnc1-c1ccc([C@H](F)CN)cn1 [compound 1371, (2S)-2-[6-[5-chloro-3-(5-cyclopropyl-2-methylpyrazol-3-yl)oxypyridin-2-yl]pyridin-3-yl]-2-fluoroethanamine]"
8,> 1000,"Cn1nc(C2CCOCC2)cc1Oc1cc(Cl)cnc1-c1ccc([C@@H](F)CN)cn1 [compound 1372, (2R)-2-[6-[5-chloro-3-[2-methyl-5-(oxan-4-yl)pyrazol-3-yl]oxypyridin-2-yl]pyridin-3-yl]-2-fluoroethanamine]"
9,< 10,"Cn1nc(C2CCOCC2)cc1Oc1cc(Cl)cnc1-c1ccc([C@H](F)CN)cn1 [compound 1373, (2S)-2-[6-[5-chloro-3-[2-methyl-5-(oxan-4-yl)pyrazol-3-yl]oxypyridin-2-yl]pyridin-3-yl]-2-fluoroethanamine]"
10,10 to 1000,"Cc1nc(Oc2cc(Cl)ccc2-c2ncc([C@@H](F)CN)cn2)cc(N2CCOCC2)n1 [compound 1374, (2R)-2-[2-[4-chloro-2-(2-methyl-6-morpholin-4-ylpyrimidin-4-yl)oxyphenyl]pyrimidin-5-yl]-2-fluoroethanamine]"
